Assay results reported in patent US10858364B2, “Imidazopyrazine inhibitors of Bruton's tyrosine kinase” (Acerta Pharma B.V., priority 2016, dated 2020).

Tests used:
anti-IgM-induced CD69 = experiment: Human PBMC anti-IgM-induced CD69 assay; type: cell-based; details: CD19+ B cells, 2 h compound, 18 h anti-IgM, read-out: hPBMC: anti-IgM-induced CD69 EC50
Method: Whole blood was collected in heparin-coated Vacutainer tubes (BD Biosciences, San Jose, Calif.) and used for isolation of PBMCs using Ficoll-Hypaque (Pharmacia, Uppsala, Sweden). Isolated PBMCs were cryopreserved in 90% FCS/10% DMSO until later use.
Cells from cryogenic storage were thawed in a 37° C. water bath, diluted with RPMI/1% FCS, washed 2 times, and then plated at 2×10^5 cells per well in RPMI/10% FCS in 96 well plates.
Serial dilutions […] from 10 mM to 316 nM of test compounds are made in 100% DMSO, followed by a 100-fold dilution into RPMI/1% FCS. For each well, 10 μL was then transferred to the deep well plate containing 90 μL of PBMC cells. […]
Following stimulation with anti-IgM, PBMCs were incubated on ice for 30 min with anti-CD69-FITC, anti-CD19-BV421 (BD Biosciences #555530 and #562440, respectively) and 7AAD (Life Technologies # A1310). Flow cytometry was performed and fluorescence values were obtained from the CD69-FITC channel in CD19+ gated life B cells. EC50 values are determined by curve fitting of the experimental results using GraphPad Prism.
PBMC assay: Cryopreserved PBMC were thawed, washed, and suspended at 2×10^5 cells/well in RPMI+10% FBS in 96-well plates. […] EC50 values were determined by curve fitting of the experimental results using Dotmatics. […]

TXK = TXK (Homo sapiens (Human), UniProt P42681); experiment: TXK Z'-LYTE kinase assay; type: biochemical; details: 1 h pre-incubation, Km ATP
Sequence of TXK (P42681 whole entry): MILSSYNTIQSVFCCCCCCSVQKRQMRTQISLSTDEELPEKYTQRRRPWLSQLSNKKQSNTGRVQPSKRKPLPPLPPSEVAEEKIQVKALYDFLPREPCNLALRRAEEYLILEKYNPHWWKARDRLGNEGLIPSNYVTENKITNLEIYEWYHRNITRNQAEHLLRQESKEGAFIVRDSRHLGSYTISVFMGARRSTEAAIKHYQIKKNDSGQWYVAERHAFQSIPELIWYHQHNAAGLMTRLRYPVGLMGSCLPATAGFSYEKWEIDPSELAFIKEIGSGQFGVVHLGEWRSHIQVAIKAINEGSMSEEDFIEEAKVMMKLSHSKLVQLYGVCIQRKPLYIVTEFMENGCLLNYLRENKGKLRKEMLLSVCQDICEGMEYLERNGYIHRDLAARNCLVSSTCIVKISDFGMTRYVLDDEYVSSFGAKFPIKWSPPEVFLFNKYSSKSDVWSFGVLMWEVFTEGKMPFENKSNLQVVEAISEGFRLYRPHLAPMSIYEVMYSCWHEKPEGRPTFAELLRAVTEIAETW
Method: BMX, TXK, EGFR, ERBB2, ERBB4, JAK3, BLK kinase activity was measured using the Z′-LYTE assay at Thermo Fisher. A 10-point dose response (final concentration in assay ranged from 10 μM to 0.5 nM in 3-fold dilution per dilution step) was generated with 1 h incubation of the test compound with the kinase prior to initiation of the kinase reaction by the addition of ATP. ATP concentration in the assay was Km ATP for the different kinases. IC50 values are determined by curve fitting of the experimental results at Thermo Fisher.

BTK wild type (BTK-WT) = BTK wild type (BTK-WT) (Homo sapiens (Human), UniProt Q06187); experiment: BTK-WT LanthaScreen, inhibition constants from IC50 over time; type: binding
Sequence of BTK wild type (BTK-WT) (Q06187 whole entry): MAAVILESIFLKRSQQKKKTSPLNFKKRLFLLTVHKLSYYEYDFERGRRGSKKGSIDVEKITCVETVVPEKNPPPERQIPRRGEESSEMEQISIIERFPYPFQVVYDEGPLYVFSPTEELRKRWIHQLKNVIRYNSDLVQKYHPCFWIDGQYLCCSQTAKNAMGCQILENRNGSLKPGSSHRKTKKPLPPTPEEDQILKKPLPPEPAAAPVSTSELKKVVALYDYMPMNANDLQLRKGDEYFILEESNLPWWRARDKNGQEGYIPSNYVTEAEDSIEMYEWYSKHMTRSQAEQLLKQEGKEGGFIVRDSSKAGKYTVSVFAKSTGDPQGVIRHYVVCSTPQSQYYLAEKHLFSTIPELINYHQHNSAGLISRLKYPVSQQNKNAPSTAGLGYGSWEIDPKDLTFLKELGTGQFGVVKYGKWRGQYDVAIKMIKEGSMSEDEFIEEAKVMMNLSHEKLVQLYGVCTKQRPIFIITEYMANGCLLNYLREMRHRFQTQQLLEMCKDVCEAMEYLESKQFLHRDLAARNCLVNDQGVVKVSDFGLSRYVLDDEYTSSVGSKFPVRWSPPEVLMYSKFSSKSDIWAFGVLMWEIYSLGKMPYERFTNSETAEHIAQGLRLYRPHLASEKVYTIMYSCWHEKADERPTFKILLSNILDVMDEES
Method: Inhibitory activity on BTK wild type (BTK-WT) and BTK Cys481Ser mutant (BTK-C481S) was measured using the LanthaScreen assay technology from ThermoFisher according to manufacturer's protocol. BTK-WT or BTK-C481 S (Genscript) were mixed and diluted with Eu-anti-GST antibody (Invitrogen) in Kinase buffer (50 mM Hepes pH 7.5+10 mM MgCl2+1 mM EGTA+0.01% Brij-35) to 15 and 6 nM, respectively. Final concentration in the assay for enzyme and antibody are 5 and 2 nM, respectively. Tracer (Kinase Tracer 236, Invitrogen) is diluted in Kinase buffer to 90 nM. Final concentration in the assay is 30 nM. Serial dilutions log 10 from 1 mM to 3.16 nM of test compounds are made in 100% DMSO. The dilutions in DMSO are then diluted 33-fold in Kinase buffer (50 mM Hepes pH 7.5+10 mM MgCl2+1 mM EGTA+0.01% Brij-35). The assay is performed as follows: 5 μL/well of BTK-WT or BTK-C481S enzyme and EU-anti-GST antibody dilution is mixed with 5 μL/well tracer dilution and 5 μL/well of compound dilution in Kinase buffer. Final compound concentration in the assay ranged from 10 μM to 0.316 nM, with 1% DMSO final concentration in assay. Mixture was incubated at room temperature in the dark and at different times of incubation (5 min, 10 min, 20 min, 30 min, 40 min, 60 min, 90 min, 120 min, 180 min and 300 min) the TR-FRET signal was read at 615 nm and 665 nm. The ratio 665/615 was used to calculate values expressed as percentage of the difference in readout (S/N) of the controls with and without Tracer. IC50 values for each timepoint were determined by curve fitting of the experimental results in Dotmatics. […] The kinetics in covalent binding are determined by affinity of the compound to BTK and by the reactivity of the electrophile. Using the data for M27 from the LanthaScreen assay on BTK-WT, the inhibition constants can be calculated for the parent and the metabolite. […] The Ki and kinact parameters were derived from IC50 values over time, according to the method of Krippendorff et al (J Biomol Screen. 2009, 14(8):913-23) with measured Km=102 nM for the tracer used in the assay.

EC50 (anti-IgM-induced CD69) | IC50 (TXK) | kinact/KI (BTK wild type (BTK-WT)) | kinact (BTK wild type (BTK-WT); derived from IC50 values over time (Krippendorff method)) | Ki (BTK wild type (BTK-WT); derived from IC50 values over time (Krippendorff method), tracer Km=102 nM) | Compound
26 ± 16 nM | 567 ± 174 nM | 16500 M⁻¹ s⁻¹ | 0.0031 ± 0.0003 s⁻¹ | 188 ± 9 nM | CC#CC(=O)NCCCC(=O)c1nc(-c2ccc(C(=O)Nc3ccccn3)cc2)c2c(N)nccn12 [Formula (I), 4-(8-amino-3-(4-(but-2-ynamido)butanoyl)imidazo[1,5-a]pyrazin-1-yl)-N-(pyridin-2-yl)benzamide]
19 ± 6 nM | 59 nM | – | – | – | CC#CC(=O)NCCCC(=O)c1nc(-c2ccc(C(=O)Nc3ccccn3)c(OC)c2)c2c(N)nccn12 [Formula (II), 4-(8-amino-3-(4-(but-2-ynamido)butanoyl)imidazo[1,5-a]pyrazin-1-yl)-2-methoxy-N-(pyridin-2-yl)benzamide]
